From PubChem BioAssay (NCI)
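How tested: cells in 96-well plates exposed to compound for 48 hours at five concentrations. At the GI50, growth is halved. TGI is the concentration that stops growth completely.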

How the values were obtained:
Assay in all cases: NCI-60 cell line screen, 48 h; in the data active = GI50 below about 0.43 µM; inactive = the rest
SF-268 CNS = test system: SF-268 CNS
OVCAR-3 ovarian = test system: OVCAR-3 ovarian
HT29 colon = test system: HT29 colon
SK-MEL-28 melanoma = test system: SK-MEL-28 melanoma
CAKI-1 renal = test system: CAKI-1 renal
A549 NSCLC = test system: A549 NSCLC
HS 578T breast = test system: HS 578T breast
SF-295 CNS = test system: SF-295 CNS
SN12C renal = test system: SN12C renal
COLO 205 colon = test system: COLO 205 colon
HOP-62 NSCLC = test system: HOP-62 NSCLC
ACHN renal = test system: ACHN renal
M14 melanoma = test system: M14 melanoma
HCT-116 colon = test system: HCT-116 colon
K-562 leukemia = test system: K-562 leukemia
UO-31 renal = test system: UO-31 renal
MCF7 breast = test system: MCF7 breast
DU-145 prostate = test system: DU-145 prostate
RPMI-8226 leukemia = test system: RPMI-8226 leukemia
NCI-H522 lung = test system: NCI-H522 lung
LOX IMVI melanoma = test system: LOX IMVI melanoma
HOP-92 NSCLC = test system: HOP-92 NSCLC
OVCAR-4 ovarian = test system: OVCAR-4 ovarian
U251 CNS = test system: U251 CNS
SK-MEL-5 melanoma = test system: SK-MEL-5 melanoma
NCI-H460 lung = test system: NCI-H460 lung
OVCAR-5 ovarian = test system: OVCAR-5 ovarian
UACC-257 melanoma = test system: UACC-257 melanoma
T-47D breast = test system: T-47D breast
KM12 colon = test system: KM12 colon
MDA-MB-231 breast = test system: MDA-MB-231 breast
MDA-MB-435 = test system: MDA-MB-435
SW-620 colon = test system: SW-620 colon
SK-OV-3 ovarian = test system: SK-OV-3 ovarian
SF-539 CNS = test system: SF-539 CNS
NCI/ADR-RES ovarian = test system: NCI/ADR-RES ovarian
786-0 renal = test system: 786-0 renal
SNB-19 CNS = test system: SNB-19 CNS
SNB-75 CNS = test system: SNB-75 CNS
RXF 393 renal = test system: RXF 393 renal
PC-3 prostate = test system: PC-3 prostate
OVCAR-8 ovarian = test system: OVCAR-8 ovarian
EKVX NSCLC = test system: EKVX NSCLC
NCI-H226 lung = test system: NCI-H226 lung
MOLT-4 leukemia = test system: MOLT-4 leukemia
UACC-62 melanoma = test system: UACC-62 melanoma
HCC-2998 colon = test system: HCC-2998 colon
NCI-H23 lung = test system: NCI-H23 lung
CCRF-CEM leukemia = test system: CCRF-CEM leukemia
IGROV1 ovarian = test system: IGROV1 ovarian
SK-MEL-2 melanoma = test system: SK-MEL-2 melanoma
HCT-15 colon = test system: HCT-15 colon
BT-549 breast = test system: BT-549 breast

Cc1nc2c(Br)cc(Br)cc2c(=O)n1-c1nnc(-c2cccc(Cl)c2Cl)c(N)n1
60.7 µM: TGI (OVCAR-8 ovarian)
> 100 µM: TGI (SF-268 CNS) | TGI (HT29 colon) | TGI (SK-MEL-28 melanoma) | TGI (COLO 205 colon) | TGI (UO-31 renal) | TGI (MCF7 breast) | TGI (DU-145 prostate) | TGI (HOP-92 NSCLC) | TGI (OVCAR-4 ovarian) | TGI (NCI-H460 lung) | TGI (T-47D breast) | TGI (SW-620 colon) | TGI (SK-OV-3 ovarian) | TGI (SNB-19 CNS) | TGI (SNB-75 CNS) | TGI (RXF 393 renal) | TGI (PC-3 prostate) | TGI (EKVX NSCLC) | TGI (CCRF-CEM leukemia) | TGI (SK-MEL-2 melanoma) | TGI (BT-549 breast)
59.6 µM: TGI (NCI-H226 lung)
50.9 µM: TGI (HCT-15 colon)
56.1 µM: TGI (ACHN renal)
87 µM: TGI (RPMI-8226 leukemia)
39 µM: TGI (SK-MEL-5 melanoma)
41.3 µM: TGI (HCC-2998 colon)
60 µM: TGI (SF-539 CNS)
62 µM: TGI (SN12C renal)
47.2 µM: TGI (HS 578T breast)
48.2 µM: TGI (786-0 renal)
65.1 µM: TGI (UACC-257 melanoma)
54.6 µM: TGI (NCI-H522 lung)
39.9 µM: TGI (LOX IMVI melanoma)
34.9 µM: TGI (HCT-116 colon)
37.3 µM: TGI (UACC-62 melanoma)
49.5 µM: TGI (MDA-MB-231 breast)
60.4 µM: TGI (OVCAR-3 ovarian)
80.6 µM: TGI (CAKI-1 renal)
28.2 µM: TGI (HOP-62 NSCLC)
40.3 µM: TGI (KM12 colon)
55.1 µM: TGI (IGROV1 ovarian)
41.1 µM: TGI (SF-295 CNS)
22.6 µM: TGI (K-562 leukemia)
65.5 µM: TGI (NCI-H23 lung)
85.1 µM: TGI (A549 NSCLC)
74.5 µM: TGI (OVCAR-5 ovarian)
inactive: GI50 (SF-268 CNS) 45.5 µM | GI50 (OVCAR-3 ovarian) 18.6 µM | GI50 (HT29 colon) 30.3 µM | GI50 (SK-MEL-28 melanoma) 65.4 µM | GI50 (CAKI-1 renal) 28.5 µM | GI50 (A549 NSCLC) 25.6 µM | GI50 (HS 578T breast) 16 µM | GI50 (SF-295 CNS) 13.2 µM | GI50 (SN12C renal) 19 µM | GI50 (COLO 205 colon) 32.9 µM | GI50 (HOP-62 NSCLC) 7.08 µM | GI50 (ACHN renal) 19.5 µM | GI50 (M14 melanoma) 4.8 µM | GI50 (HCT-116 colon) 12.8 µM | GI50 (K-562 leukemia) 3.4 µM | GI50 (UO-31 renal) 31 µM | GI50 (MCF7 breast) 26.7 µM | GI50 (DU-145 prostate) 27.8 µM | GI50 (RPMI-8226 leukemia) 9.39 µM | GI50 (NCI-H522 lung) 12.8 µM | GI50 (LOX IMVI melanoma) 12.9 µM | GI50 (HOP-92 NSCLC) 42.4 µM | GI50 (OVCAR-4 ovarian) 84.5 µM | GI50 (U251 CNS) 21.7 µM | GI50 (SK-MEL-5 melanoma) 17.2 µM | GI50 (NCI-H460 lung) 20.3 µM | GI50 (OVCAR-5 ovarian) 26.6 µM | GI50 (UACC-257 melanoma) 24.5 µM | GI50 (T-47D breast) 55.2 µM | GI50 (KM12 colon) 11.4 µM | GI50 (MDA-MB-231 breast) 13.9 µM | GI50 (MDA-MB-435) 3.8 µM | GI50 (SW-620 colon) 33.8 µM | GI50 (SK-OV-3 ovarian) 24.9 µM | GI50 (SF-539 CNS) 21.6 µM | GI50 (NCI/ADR-RES ovarian) 13.6 µM | GI50 (786-0 renal) 18.4 µM | GI50 (SNB-19 CNS) 42 µM | GI50 (SNB-75 CNS) 33.6 µM | GI50 (RXF 393 renal) 26.2 µM | GI50 (PC-3 prostate) 23.6 µM | GI50 (OVCAR-8 ovarian) 18.7 µM | GI50 (EKVX NSCLC) 22.1 µM | GI50 (NCI-H226 lung) 21.3 µM | GI50 (MOLT-4 leukemia) 15.3 µM | GI50 (UACC-62 melanoma) 13.4 µM | GI50 (HCC-2998 colon) 17.6 µM | GI50 (NCI-H23 lung) 23.4 µM | GI50 (CCRF-CEM leukemia) 19.3 µM | GI50 (IGROV1 ovarian) 15 µM | GI50 (SK-MEL-2 melanoma) 27.4 µM | GI50 (HCT-15 colon) 15.4 µM | GI50 (BT-549 breast) 29.3 µM
72.5 µM: TGI (U251 CNS)
14.3 µM: TGI (MDA-MB-435)
62.1 µM: TGI (MOLT-4 leukemia)
22.7 µM: TGI (M14 melanoma)
37.5 µM: TGI (NCI/ADR-RES ovarian)
